Measured values from PMC5011932, “Comparative pharmacokinetics and pharmacodynamics of intravenous artelinate versus artesunate in uncomplicated Plasmodium coatneyi-infected rhesus monkey model” (Malaria Journal, 2016).
Where “and” joins values, the source holds several entries; their conditions need not be identical. Equal values may be shown once.

Experiments:
in vivo = conditions: rhesus monkey; for AUC(0-t) / AUC(0-inf) / clearance / Cmax / half-life: iv, 8 mg/kg; for clearance: Cl
Description: (§1) These doses were chosen as the minimal effective doses (from previous model development and validation studies, unpublished data) and blood was collected for pharmacokinetic analysis. After a week wash-out and recovery period, P. coatneyi (1 mL of >50,000 parasitized RBCs per microlitre or 5 × 10^6 RBC with a 1 % parasitaemia) were inoculated from a donor monkey into all the monkeys. The treatment was initiated at day 6 after inoculation at a parasitaemia ≥3 % or >200,000 parasites μL^−1 when the cohort of animals was minimally symptomatic. Drugs were given for 3 days with a loading dose initially followed by ½ of the first dose on the 2nd and 3rd days.
(§2) Blood was collected for pharmacokinetic/pharmacodynamics (PK/PD) analysis after the first dose only due to rapid clearance of artemisinin derivatives. Heparinized blood was collected at 0, 5, 20, 40 min, 1, 3, and 6 h post-dose and plasma samples were separated within 2 h by centrifugation (1500g, 10 min). Aliquots of samples were made for simultaneous measurement by HPLC [16] and bioassay [14], and stored at −80 °C until analysis. All glassware was silanized before use with a 0.5 % aqueous solution (v/v) of Pierce Aquasil (Rockford, IL, USA) according to the manufacturer’s recommended procedure. Solid-phase extraction was performed on C-18 elution cartridge (3.0 ml, J.T. Baker Co.) using a VAC ELUTE SPS24 sample processing station (Analytichem International, Harbour City, CA, USA). The cartridge was preconditioned by sequential washing with 2.5 ml acetonitrile, 2.5 ml methanol and 2.5 ml water. One ml of distilled water was added to the cartridge before adding plasma sample (0.5 ml). Then, the cartridge was washed with 2.5 ml distilled water, 2.5 ml of 0.05 % H3PO4 (pH 4.5) and 2.5 ml of 20 % acetonitrile and completely dried by closing the vacuum for 15 min. The analytes were collected by eluting with 0.5 ml methanol three times and then with 0.5 ml 90:10 n-butyl chloride: ethyl acetate twice. The organic phases were pooled. The combined organic phases were then evaporated to dryness under a stream of nitrogen at room temperature. Extraction residues were reconstituted with 50:50 ethanol: water (0.3 ml), at least 16 h before injection. The injection volume was 100 µl for all samples.
(§3) The plasma concentration of parent drugs, AL and AS, and their primary metabolites, DHA and 2-hydroxyartelinate (OHAL) respectively, were measured by HPLC with electrochemical detection in reductive mode (HPLC-ECD) [16], which was the only method for artemisinin compounds then (Additional files 1 and 2).
(§4) HPLC with reductive electrochemical detection was performed using a model BAS 200B liquid chromatography (Bioanalytical Systems, Inc., West Lafayette, Indiana, USA). A Nova-Pak® C18 (3.9 × 150 mm, Waters Corporation, Milford, MA, USA) was used with 40 % acetonitrile in sodium acetate buffer (pH 3.6) as mobile phase. Detection was performed using a thin dual-layer glassy carbon electrode run in parallel mode at a potential of −1.0 V versus Ag/AgCl. The system was operated at the following temperatures: mobile phase 35 °C, column and detector oven 30 °C, cell 31 °C with the flow rate of 1.5 mL min^−1. Artemisinin (ART) was used as an internal standard. Samples were injected via Gilson model 231 XL sampling injector equipped with a 100 µL loop, a Gilson model 401 dilutor/pipettor, a sampler controller keypad (Gilson Medical Electronics, Middleton, WI, USA), and a Valco electrically actuated switching valve (Valco Instrument Co. Inc) was used. This system automatically deoxygenated and injected sample, which permits the high sample throughput associated with automated injection. Data were acquired and analysed using a Millennium^32 Chromatography Manager (Waters Corporation, Milford, MA, USA).

[1] = set-up: method as in PMID 2631113; conditions: rats, 1 h following IV administration; cited from earlier work
Plasmodium coatneyi = experiment: In vivo pharmacodynamics (parasite clearance) in uncomplicated P. coatneyi-infected splenectomized rhesus monkey model
Description: Twenty-two adult colony-born, Indian-origin rhesus macaques (Macaca mulatta) naïve monkeys were splenectomized and recovered well more than 1 month prior to entering the study. […] Twenty-two animals were randomized to two experiments of 11 monkeys. […] The control monkeys received intramuscular quinine treatment and the experimental animals received intravenous artemisinin candidates.
Based on our previous model validation, blood smears were performed to detect malaria parasites starting prior to inoculation on day 0 and continued daily (0700–0800 h). The monkeys were physically restrained in the squeeze cage restraint apparatus and approximately 0.1–0.2 ml whole blood was collected from each monkey by lancet puncture of the lateral auricular vein. Thick and thin smears were made on the same microscope glass slide and subsequently fixed in methanol and stained with Giemsa. When the smears were positive, white blood cell count (WBC) and/or red blood cell count (RBC) were also performed using automated haematology analyzer Sysmex K800 to calculate parasite density. Haematocrits were checked as needed. At study days 6–12, additional blood samples were obtained from all animals in the afternoon (1500–1600 h) to monitor parasitaemia levels. Daily blood smears were continued until two consecutive days with negative smears. Then the smear monitoring schedule was reduced to two times weekly for 2 weeks and then weekly for 6 weeks after completion of the last treatment.
Blood smear staining and parasitaemia determination took about 2 h. […] The control monkey received quinine treatment and the ten experimental animals received intravenous artemisinin derivative candidate.
After a week wash-out and recovery period, P. coatneyi (1 mL of >50,000 parasitized RBCs per microlitre or 5 × 10^6 RBC with a 1 % parasitaemia) were inoculated from a donor monkey into all the monkeys. The treatment was initiated at day 6 after inoculation at a parasitaemia ≥3 % or >200,000 parasites μL^−1 when the cohort of animals was minimally symptomatic. Drugs were given for 3 days with a loading dose initially followed by ½ of the first dose on the 2nd and 3rd days.
Blood smear were collected once daily in the morning. Once positive parasitaemia was observed and reached 2000 parasites μL^−1, blood smears were collected twice, in the morning and afternoon. Blood for slides preparation were collected from ear for thick and thin smear preparation. Blood films on glass slides were air dried, fixed with 100 % methanol, stained with Giemsa, and read under ×100 magnification oil emersion for parasite determination.
First, a thick smear was performed for parasite detection by reading the slides at least 50 fields under ×100 magnification oil emersion.

Plasmodium falciparum = test system: Plasmodium falciparum; set-up: method as in Newton, 2000 [22]; conditions: Human, 2 mg kg^−1 IV AS, ref Newton, 2000 [22], cited from earlier work
[2] = rhesus monkey, in vivo
Description: as §1, §2, §3, §4

P. falciparum clone (W2) = experiment: Ex vivo Plasmodium falciparum-based bioassay (BA) of rhesus plasma, effect kinetics (ePD) as DHA equivalents; type: cell-based
Description: Blood was collected for pharmacokinetic/pharmacodynamics (PK/PD) analysis after the first dose only due to rapid clearance of artemisinin derivatives. Heparinized blood was collected at 0, 5, 20, 40 min, 1, 3, and 6 h post-dose and plasma samples were separated within 2 h by centrifugation (1500g, 10 min). Aliquots of samples were made for simultaneous measurement by HPLC [16] and bioassay [14], and stored at −80 °C until analysis.
The plasma anti-malarial activities of the artemisinin derivatives were measured using a previously published method [14]. […] After centrifugation, the supernatant (100 µL) was transferred to a 96-well flat bottom plate. Twofold serial dilutions were then made using heat inactivated pooled control serum (human:rhesus = 1:1). A suspension of malaria (W2 clone) infected erythrocytes was added to each well. The microtitre plate was placed into a gas-tight plexiglass chamber, flushed with a gas mixture of 90 % CO2, 5 % O2, and 5 % N2, and placed into an incubator (37 °C). Following 24 h incubation, the plate was removed from the chamber and pulsed with [^3H]-hypoxanthine solution to each well and incubated for another 18–20 h before harvesting. The incorporation of [^3H]-hypoxanthine by the parasites in each well was determined by counting in a scintillation counter.
A dose–response curve for each plasma sample was constructed by plotting [^3H]-hypoxanthine uptake on the Y-axis against the corresponding dilution factor on the X-axis after logarithmic transformation. The dilution factor value that inhibits parasite growth by 50 % (DF50) of each plasma sample was determined.

[3] = DHA equivalents, infected rhesus

Compound: C[C@H]1[C@H](OC(=O)CCC(=O)O)O[C@@H]2O[C@@]3(C)CC[C@H]4[C@H](C)CC[C@@H]1[C@@]24OO3 [IV AS, Artesunic acid]
- concentration at 1 h (in vivo; Plasma concentration, mean): 0.05 µM
- concentration at 3 h (in vivo; Plasma concentration, mean): 0 µM
- concentration at 6 h (in vivo; Plasma concentration, mean): 0 µM
- AUC(0-t) (in vivo; AUC 0-20): 4.78 µM·h
- AUC(0-t) (in vivo; AUC0–20, parent compound (P)): 4.8 µM·h
- AUC(0-t) (in vivo; AUC0–20, parent drug): 4.8 µM·h
- AUC(0-inf) (in vivo; AUC0–∞, parent compound (P)): 4.8 µM·h
- AUC(0-inf) (in vivo; AUC0–∞, parent drug): 4.8 µM·h
- AUC(0-inf) (in vivo; AUC(0-inf)): 5.2 µM·h
- clearance (in vivo): 4.7 L/h/kg
- clearance (in vivo; parent): 4.34 L/h/kg
- Cmax (in vivo; parent compound (P)): 28.2 µM
- Cmax (in vivo; parent drug): 28.2 µM
- half-life (in vivo; t1/2, parent compound (P)): 3.47 min
- half-life (in vivo; t 1/2, z): 4.17 min
- tissue levels [1]: high levels of AS were found in brain, fat, intestine and serum
- Parasite/µL, mean (Plasmodium coatneyi; 0.29 day post-dose): 32,080 Parasite/µL
- Parasite Reduction (Plasmodium coatneyi; 0.29 day post-dose, IV AS experiment (mean; IM QN = its control monkey)): 88.6%
- Parasite/µL, mean (Plasmodium coatneyi; 1.00 day post-dose): 63,163 Parasite/µL
- Parasite Reduction (Plasmodium coatneyi; 1.00 day post-dose, IV AS experiment): 81.1%
- Parasite/µL, mean (Plasmodium coatneyi; 1.29 day post-dose): 9,364 Parasite/µL
- Parasite Reduction (Plasmodium coatneyi; 1.29 day post-dose, IV AS experiment): 97.1%
- Parasite/µL, mean (Plasmodium coatneyi; 2.00 day post-dose): 1,383 Parasite/µL
- Parasite Reduction (Plasmodium coatneyi; 2.00 day post-dose, IV AS experiment): 99.4%
- Parasite/µL, mean (Plasmodium coatneyi; 2.29 day post-dose): 345 Parasite/µL
- Parasite Reduction (Plasmodium coatneyi; 2.29 day post-dose, IV AS experiment): 99.8%
- Parasite/µL, mean (Plasmodium coatneyi; 3.00 day post-dose): 96 Parasite/µL
- Parasite Reduction (Plasmodium coatneyi; 3.00 day post-dose, IV AS experiment): 100.0%
- Parasite Reduction (Plasmodium coatneyi; 3.29 day post-dose, IV AS experiment): 99.9%
- Parasite/µL, mean (Plasmodium coatneyi; 4.00 day post-dose): 66 Parasite/µL
- Parasite Reduction (Plasmodium coatneyi; 4.00 day post-dose, IV AS experiment): 100.0%
- Parasite/µL, mean (Plasmodium coatneyi; 4.29 day post-dose): 87 Parasite/µL
- Parasite Reduction (Plasmodium coatneyi; 4.29 day post-dose, IV AS experiment): 100.0%
- Parasite/µL, mean (Plasmodium coatneyi; 5.00 day post-dose): 60 Parasite/µL
- Parasite Reduction (Plasmodium coatneyi; 5.00 day post-dose, IV AS experiment): 100.0%
- Parasite/µL, mean (Plasmodium coatneyi; 5.29 day post-dose): 31 Parasite/µL
- Parasite Reduction (Plasmodium coatneyi; 5.29 day post-dose, IV AS experiment): 100.0%
- Parasite/µL, mean (Plasmodium coatneyi; 6.00 day post-dose): 13 Parasite/µL
- Parasite Reduction (Plasmodium coatneyi; 6.00 day post-dose, IV AS experiment): 100.0%
- Parasite/µL, mean (Plasmodium coatneyi; 6.29 day post-dose): 23 Parasite/µL
- Parasite Reduction (Plasmodium coatneyi; 6.29 day post-dose, IV AS experiment): 100.0%
- Parasite/µL, mean (Plasmodium coatneyi; 7.00 day post-dose): 15 Parasite/µL
- Parasite Reduction (Plasmodium coatneyi; 7.00 day post-dose, IV AS experiment): 100.0%
- Parasite/µL, mean (Plasmodium coatneyi; 8.00 day post-dose): 4 Parasite/µL
- Parasite Reduction (Plasmodium coatneyi; 8.00 day post-dose, IV AS experiment): 100.0%
- Parasite/µL, mean (Plasmodium coatneyi; 9.00 day post-dose): 2 Parasite/µL
- Parasite Reduction (Plasmodium coatneyi; 9.00 day post-dose, IV AS experiment): 100.0%
- Parasite/µL, mean (Plasmodium coatneyi; 10.00 day post-dose): 0 Parasite/µL
- Parasite Reduction (Plasmodium coatneyi; 10.00 day post-dose, IV AS experiment): 100.0%
- PCT of individual animals (Plasmodium coatneyi; IV AL: the only two determinable, IV AS: the two most rapid): 4.0 days and 5.0 days
- Recrudescence, median (range, n) (Plasmodium coatneyi; in vivo): 13 (9–19, 10) days
- R, Day (recrudescence day), mean (Plasmodium coatneyi; n 2 IV AL, n 10 IV AS): 13 days
- PC50 (Plasmodium coatneyi; range in evaluable animals (4 of 8 IV AL, 3 of 10 IV AS)): 0.32 to 5.88 h
- Median PCT of the remaining eight monkeys (Plasmodium coatneyi; without the two most rapid): 8.0 days
- AUC (ePD) (Plasmodium falciparum; mean (95 % CI)): 636 (524–748) µmol min L^−1
- Cl (ePD) (Plasmodium falciparum): 0.83 (0.70–0.96) L h^−1 kg^−1
- t1/2, metabolite (M) [2]: 31.1 min
- Cl ([2]; iv, 8 mg/kg): 4.38 L hr^-1 kg ^-1
- Antimalarial activity expressed as DHA equi., mean (P. falciparum clone (W2); 0.08 h, healthy rhesus): 17.94 µmol/L
- Antimalarial activity expressed as DHA equi., mean (P. falciparum clone (W2); 0.08 h, infected rhesus): 22.45 µmol/L
- Antimalarial activity expressed as DHA equi., mean (P. falciparum clone (W2); 0.33 h, healthy rhesus): 5.77 µmol/L
- Antimalarial activity expressed as DHA equi., mean (P. falciparum clone (W2); 0.33 h, infected rhesus): 4.28 µmol/L
- Antimalarial activity expressed as DHA equi., mean (P. falciparum clone (W2); 0.67 h, healthy rhesus): 3.16 µmol/L
- Antimalarial activity expressed as DHA equi., mean (P. falciparum clone (W2); 0.67 h, infected rhesus): 3.19 µmol/L
- Antimalarial activity expressed as DHA equi., mean (P. falciparum clone (W2); 1.0 h, healthy rhesus): 1.75 µmol/L
- Antimalarial activity expressed as DHA equi., mean (P. falciparum clone (W2); 1.0 h, infected rhesus): 1.58 µmol/L
- Antimalarial activity expressed as DHA equi., mean (P. falciparum clone (W2); 3.0 h, healthy rhesus): 0.22 µmol/L
- Antimalarial activity expressed as DHA equi., mean (P. falciparum clone (W2); 3.0 h, infected rhesus): 0.12 µmol/L
- Antimalarial activity expressed as DHA equi., mean (P. falciparum clone (W2); 6.0 h, healthy rhesus): 0 µmol/L
- Antimalarial activity expressed as DHA equi., mean (P. falciparum clone (W2); 6.0 h, infected rhesus): 0 µmol/L
- AUC0–20, ePD (P. falciparum clone (W2); [3]): 242 µM·min
- AUC0–∞, ePD (P. falciparum clone (W2); [3]): 485 µM·min
- Bioactivity %AUC20 (P. falciparum clone (W2); mean, healthy rhesus): 48.3%
- Bioactivity Cl (P. falciparum clone (W2); mean, healthy rhesus): 3.07 L hr^-1 kg ^-1
- Bioactivity %AUC20 (P. falciparum clone (W2); mean, infected rhesus): 55.0%
- Bioactivity (DHA equi.) AUC(0-inf) (P. falciparum clone (W2); mean, infected rhesus): 476 (346–607) µmole min L^-1
- Bioactivity Cl (P. falciparum clone (W2); mean, infected rhesus): 3.18 (2.25–4.11) L hr^-1 kg ^-1
- Bioactivity Cl (P. falciparum clone (W2); mean, infected rhesus, listed as I.V. AS/Na): 3.18 L hr^-1 kg ^-1
